Results as given in patent publication US4885239A, “Rapid differentiation of bacteria using polyether antibiotics” (Eastman Kodak Company, priority 1986, dated 1989).

What was measured:
[1] = test system: E. coli; experiment: dye formation from RIND VII in presence of calimycin, E. coli; type: cell-based, Escherichia coli (ATCC 25922); parameters: key: 0: no dye formation; +/-: faint dye formation; 1+: light dye formation; 2+: moderate dye formation; 3+: strong dye formation; 4+: very strong dye formation; conditions: calimycin 10^-3 molar, calcium chloride
Procedure: (§1) gram-negative bacteria Enterobacter cloacae (ATCC 23355), Escherichia coli (ATCC 25922), Proteus vulgaris (ATCC 13315), Klebsiella pneumoniae (ATCC 13883) and Pseudomonas aeruginosa (ATCC 27853), and gram-positive bacteria Staphylococcus aureus (ATCC 25923) and Streptococcus pyogenes (ATCC 19615), and brain heart infusion (BHI) broth from Difco Laboratories (Detroit, Mich.),
(§2) Bacterial suspensions were prepared by growing the cells in BHI to stationary phase overnight at 37° C. P. aeruginosa was grown with agitation. […]
(§3) TERGITOL 7 anionic surfactant was used to differentiate viable bacteria according to the prior art method. […] The amount of dye formed was then determined visually and graded as follows: 0 indicates no dye formation, +/- indicates faint dye formation, 1+ indicates light dye formation, 2+ indicates moderate dye formation, 3+ indicates strong dye formation, and 4+ indicates very strong dye formation.
(§4) Calimycin, a polyether antibiotic, was similarly used with RIND VII in the differentiation of bacteria. Assays were performed as described above, except that 25 μl of 1 molar calcium chloride solution was added to each test solution and the P. aeruginosa response was measured in the presence of 10% yeast extract as the carbon source instead of glucose. […]

[2] = test system: S. faecalis; experiment: dye formation from RIND VII in presence of calimycin, S. faecalis; type: cell-based, Streptococcus faecalis (clinical urine isolate); parameters: key: 0: no dye formation; +/-: faint dye formation; 1+: light dye formation; 2+: moderate dye formation; 3+: strong dye formation; 4+: very strong dye formation; conditions: calimycin 10^-3 molar, calcium chloride
Procedure: Streptococcus faecalis was isolated from a clinical urine specimen obtained from a local hospital,
(§5) Bacterial suspensions were prepared by growing the cells in BHI to stationary phase overnight at 37° C. P. aeruginosa was grown with agitation. About 40 ml of overnight cultures were centrifuged, decanted and washed once with 0.05 molar potassium phosphate buffer or 0.05 molar N-2-hydroxyethylpiperazine-N'-2-ethanesulfonic acid (HEPES) buffer, pH 7.8, and resuspended in buffer.
A dispersion containing a RIND compound was prepared by dissolving RIND VII from Table II above in N,N-dimethylformamide (DMF) at 16 mg compound per ml of solvent. […]
as §3, §4

[3] = test system: S. aureus (gram +); experiment: change in relative fluorescence with water-compatible RIND XXXV (Example 4), S. aureus; type: cell-based, Staphylococcus aureus (ATCC 25923); conditions: 37° C., without antibiotic 2667
Procedure: as §1, §5
A dispersion containing a RIND compound was prepared by dissolving RIND VII from Table II above in N,N-dimethylformamide (DMF) at 16 mg compound per ml of solvent. An aliquot (250 μl) of the resulting solution was added to 500 μl of TRITON X-100 surfactant. This mixture was then added dropwise with stirring to 25 ml of 0.05 molar HEPES buffer. A solution containing a water-compatible RIND compound XXXV was prepared by dissolving the compound (16 mg/ml) in N,N-dimethylformamide which had been acidified with a 0.1% sulfuric acid solution.
A solution was prepared from the following components: 100 μl RIND XXXV solution (16 mg/ml acidified N,N-dimethylformamide), 200 μl glucose solution (10% in water), 200 μl trimethyl-1,4-benzoquinone ETA solution (1.5 mg/ml methanol) and 10 ml HEPES buffer.
Test solutions were prepared from the following reagents: 50 μl HEPES buffer, 50 μl polyether antibiotic A23187 (free acid, 0.01 molar in methanol), 10 μl calcium chloride solution (1 molar) (serial dilutions of buffer and antibiotic were performed to obtain various antibiotic concentrations), 50 μl of the appropriate cell suspensions (E. coli, about 10^8 cells/ml and S. aureus, about 10^8 cells/ml) and 200 μl of the RIND solution. Control solutions were prepared as described in Examples 2 and 3.
Relative fluorescence was measured using a standard spectrophotometer modified to read at excitation of 540 nm and emission of 620 nm. The change (Δ) in relative fluorescence was determined after 30 minutes at 37° C. for several concentration levels of antibiotic.

[4] = test system: E. coli (gram -); experiment: inhibition of the reduction of RIND XXXV in dry analytical element (Example 6), E. coli; type: cell-based, Escherichia coli (ATCC 25922); conditions: calcium chloride, 30 minutes, 37° C.
Procedure: as §1, §2
Optical density readings (OD) were made at 635 nm at 0 minutes and after incubation at 37° C. for 30 minutes for all solutions, and the change (ΔOD) was determined. […] The corrected percent inhibition was calculated by dividing the difference between ΔOD obtained from a Control test without antibiotic and the ΔOD of the test, by the ΔOD of the Control without antibiotic. All readings were corrected by subtracting readings of the appropriate background control. […]
The relative fluorescence (excitation 540 nm, emission 620 nm) was measured using a standard spectrophotometer, and the change in relative fluorescence was determined after 30 minutes at 37° C. […]

Structure (SMILES): CNc1ccc2oc(C[C@H]3O[C@@]4(CC[C@H]3C)O[C@H]([C@H](C)C(=O)c3ccc[nH]3)[C@H](C)C[C@H]4C)nc2c1C(=O)O [calimycin, Calimycin]
- dye formation ([1]; 15 Minutes): 3+
- dye formation ([1]; 30 Minutes): 4+
- dye formation ([2]; 15 Minutes): +/-
- dye formation ([2]; 30 Minutes): +/-
- Δ Relative Fluorescence after 30 Min. ([3]; antibiotic 1 × 10^-4 molar): 409
- Δ Relative Fluorescence after 30 Min. ([3]; antibiotic 2 × 10^-4 molar): 362
- Δ Relative Fluorescence after 30 Min. ([3]; antibiotic 4 × 10^-4 molar): 290
- Δ Relative Fluorescence after 30 Min. ([3]; antibiotic 8 × 10^-4 molar): 345
- Corrected Percent Inhibition [4]: 11.5%
